According to article PMC9166766 (Experimental & Molecular Medicine, 2022):
No end group written: not given here.

What was measured:
[1] = test system: Jurkat T cells (PMA and ionomycin-induced gene expression); experiment: mRNA sequencing of activated Jurkat T cells; assay type: cell-based, human; conditions: P+I 8 h
Protocol: We then extracted RNA from these cells. Construction of the cDNA library and next-generation sequencing was performed at LAS (Gimpo, Korea). We sequenced all samples on an Illumina NextSeq 500 system with 75 paired-end reads. For the RNA sequencing analysis, reads for each sample were aligned to the human genome (GRCh37/hg19 genome assembly) using STAR 2.4.0.1[25] with default settings. We used HOMER tools to quantify and normalize the defined genes in RefSeq transcripts. FPKM normalized genes were hierarchically clustered using Cluster3.0[26]. We visualized refined data with Java Treeview (http://jtreeview.sourceforge.net). We conducted gene ontology analysis of each cluster using the DAVID web tool (https://david.ncifcrf.gov). Finally, we visualized the expression levels of target genes using the Integrative Genomics Viewer (http://software.broadinstitute.org/software/igv). The raw data were submitted to the NCBI Gene Expression Omnibus under accession number GSE185561.
Fig. 3 The CABIN1 peptide inhibits T-cell activation. a Heatmap of altered genes affected by FK506 treatment or CABIN1 peptide expression upon T-cell activation. b Gene Ontology analysis of cluster III. c mRNA expression levels of genes included in cluster III. d qRT-PCR data of genes in c. The experiment was independently repeated at least three times, and the data are presented as the mean ± standard deviation. Statistical differences were determined using two-tailed Student’s t-test. *p < 0.05, **p < 0.01, ***p < 0.001, NC negative control.

[2] = test system: Jurkat T cells (T-cell activation gene mRNA); experiment: Real-time quantitative PCR of activated Jurkat T cells; assay type: cell-based; conditions: PMA and ionomycin
Source text: We collected Jurkat T cells with QIAzol Lysis Reagent (Qiagen) to extract total RNA. We reverse transcribed cDNAs from isolated RNA using AMV Reverse Transcriptase and random hexamers. We performed real-time quantitative PCR for each cDNA using TB Green® Premix Ex Taq™ (TaKaRa, Kusatsu, Japan) on a CFX Connect Real-time PCR Detection System (Bio-Rad, Hercules, CA, USA) and normalized the expression to that of 18 S rRNA or GAPDH.

CABIN1-L-1-2: 10 amino acids from proline 2146 to proline 2155 of full-length CABIN1; expressed GST-, GAL4 DBD- or HA-mCherry-tagged (PEITVTPPTP; also: expressed GST-, GAL4 DBD- or HA-mCherry-tagged, end not given here)
LOC729603 expression ([1]; NC 1.468, NC_P+I 5.071): 3.329 FPKM | PDGFA expression ([1]; NC 1.497, NC_P+I 26.809): 8.169 FPKM | PHACTR2 expression ([1]; NC 1.659, NC_P+I 9.467): 2.791 FPKM | CABP1 expression ([1]; NC 1.702, NC_P+I 5.834): 1.689 FPKM | POU2AF1 expression ([1]; NC 1.84, NC_P+I 36.298): 2.971 FPKM | SPRY1 expression ([1]; NC 2.079, NC_P+I 12.391): 4.901 FPKM | GFOD1 expression ([1]; NC 2.283, NC_P+I 12.861): 6.312 FPKM | DSTYK expression ([1]; NC 2.356, NC_P+I 7.198): 3.595 FPKM | FMNL2 expression ([1]; NC 2.395, NC_P+I 6.813): 3.019 FPKM | ADORA2A expression ([1]; NC 2.492, NC_P+I 11.633): 1.475 FPKM | CD27 expression ([1]; NC 2.525, NC_P+I 27.462): 3.4 FPKM | TNFRSF4 expression ([1]; NC 2.597, NC_P+I 31.683): 11.916 FPKM | REL expression ([1]; NC 2.654, NC_P+I 20.219): 5.699 FPKM | JAK2 expression ([1]; NC 2.788, NC_P+I 26.566): 8.45 FPKM | LRRC8B expression ([1]; NC 2.89, NC_P+I 28.699): 4.298 FPKM | NPDC1 expression ([1]; NC 3.008, NC_P+I 8.759): 5.64 FPKM | CD27-AS1 expression ([1]; NC 3.088, NC_P+I 14.958): 4.613 FPKM | CST7 expression ([1]; NC 3.315, NC_P+I 14.15): 3.175 FPKM | TAGAP expression ([1]; NC 3.351, NC_P+I 128.498): 8.731 FPKM | CD55 expression ([1]; NC 3.587, NC_P+I 39.451): 12.082 FPKM | GTDC1 expression ([1]; NC 3.595, NC_P+I 10.378): 5.144 FPKM | KCNK5 expression ([1]; NC 3.84, NC_P+I 14.865): 4.904 FPKM | MYO1D expression ([1]; NC 4.114, NC_P+I 11.118): 5.995 FPKM | RDH10 expression ([1]; NC 4.125, NC_P+I 19.889): 5.524 FPKM | COL27A1 expression ([1]; NC 4.149, NC_P+I 17.216): 5.729 FPKM | PLK3 expression ([1]; NC 4.432, NC_P+I 14.807): 7.036 FPKM | NFATC1 expression ([1]; NC 4.511, NC_P+I 15.287): 3.916 FPKM | ASAP1 expression ([1]; NC 4.678, NC_P+I 18.37): 9.052 FPKM | GRK5 expression ([1]; NC 5.451, NC_P+I 21.464): 8.975 FPKM | CCDC64 expression ([1]; NC 5.477, NC_P+I 33.545): 11.039 FPKM | ATG14 expression ([1]; NC 5.727, NC_P+I 30.239): 11.252 FPKM | PELI1 expression ([1]; NC 5.755, NC_P+I 16.085): 8.465 FPKM | ARHGEF3 expression ([1]; NC 6.146, NC_P+I 31.337): 8.674 FPKM | PKIA expression ([1]; NC 6.444, NC_P+I 49.019): 18.138 FPKM | LTBP4 expression ([1]; NC 7.304, NC_P+I 33.466): 9.568 FPKM | LAMP3 expression ([1]; NC 8.064, NC_P+I 31.61): 9.828 FPKM | LAX1 expression ([1]; NC 8.344, NC_P+I 24): 7.578 FPKM | PTPN22 expression ([1]; NC 8.928, NC_P+I 45.38): 5.119 FPKM | VAMP1 expression ([1]; NC 9.566, NC_P+I 50.97): 14.752 FPKM | NINJ1 expression ([1]; NC 10.319, NC_P+I 76.622): 54.452 FPKM | KCNK1 expression ([1]; NC 10.828, NC_P+I 36.893): 13.139 FPKM | CD97 expression ([1]; NC 10.97, NC_P+I 49.481): 21.496 FPKM | FBXO34 expression ([1]; NC 11.735, NC_P+I 48.015): 18.386 FPKM | TBC1D20 expression ([1]; NC 11.844, NC_P+I 35.808): 18.427 FPKM | MIR6775 expression ([1]; NC 12.409, NC_P+I 50.527): 21.57 FPKM | AGK expression ([1]; NC 14.395, NC_P+I 39.056): 14.306 FPKM | FYN expression ([1]; NC 14.671, NC_P+I 58.084): 15.512 FPKM | MIR6821 expression ([1]; NC 17.553, NC_P+I 62.894): 25.116 FPKM | NDFIP1 expression ([1]; NC 19.638, NC_P+I 54.615): 24.432 FPKM | TBC1D4 expression ([1]; NC 20.739, NC_P+I 73.749): 13.191 FPKM | MAP2K3 expression ([1]; NC 21.676, NC_P+I 144.057): 43.237 FPKM | PTPN6 expression ([1]; NC 22.163, NC_P+I 77.092): 20.806 FPKM | FXYD5 expression ([1]; NC 25.643, NC_P+I 101.352): 42.856 FPKM | BCL2L1 expression ([1]; NC 31.375, NC_P+I 113.956): 41.852 FPKM | ATP6V1B2 expression ([1]; NC 33.172, NC_P+I 129.395): 60.661 FPKM | PIM3 expression ([1]; NC 37.434, NC_P+I 180.382): 72.895 FPKM | PPIF expression ([1]; NC 58.328, NC_P+I 188.301): 106.533 FPKM | NINJ1 and ZP4 expression upon T-cell activation ([2]; Supplementary Fig. 5a, b): unaffected | RNA levels of T-cell activation genes (qRT-PCR) vs VIVIT peptide ([2]; at least three repeats): reduced the RNA levels of these genes more efficiently than the VIVIT peptide
